{"source": "ChEMBL document CHEMBL4725399", "about": "“Galangin ameliorated pulmonary fibrosis in vivo and in vitro by regulating epithelial-mesenchymal transition” (Bioorg Med Chem, 2020)", "key": {"Mus musculus [1]": {"system": "Mus musculus", "experiment": "Antifibrotic activity in C57BL/6 mouse model of bleomycin-induced lung fibrosis assessed as reduction in CD8+CD69+ T-cells at 25 mg/kg dosed via oral gavage for 14 days by flow cytometry analysis", "format": "functional, organism-based", "settings": "time 14.0 day"}, "Mus musculus [2]": {"system": "Mus musculus", "experiment": "Antifibrotic activity in C57BL/6 mouse model of bleomycin-induced lung fibrosis assessed as reduction in CD4+CD69+ T-cells at 50 mg/kg dosed via oral gavage for 14 days by flow cytometry analysis", "format": "functional, organism-based", "settings": "time 14.0 day"}, "Mus musculus [3]": {"system": "Mus musculus", "experiment": "Antifibrotic activity in C57BL/6 mouse model of bleomycin-induced lung fibrosis assessed as inhibition of pathological changes by measuring collagen deposition in lung tissue at 25 to 50 mg/kg dosed via oral gavage for 14 days by H and E staining-based histopathological analysis", "format": "functional, organism-based", "settings": "dose mg/kg 25-50, time 14.0 day"}, "Mus musculus [4]": {"system": "Mus musculus", "experiment": "Antifibrotic activity in C57BL/6 mouse model of bleomycin-induced lung fibrosis assessed as reduction in weight loss at 25 mg/kg dosed via oral gavage and measured for 7 to 14 days", "format": "functional, organism-based", "settings": "time day 7-14"}, "A549 [5]": {"system": "A549", "experiment": "Down regulation of vimentin protein expression in human A549 cells at 50 uM by Western blotting analysis", "format": "functional, cell-based", "settings": "time 24.0 hrs"}, "Mus musculus [6]": {"system": "Mus musculus", "experiment": "Antifibrotic activity in C57BL/6 mouse model of bleomycin-induced lung fibrosis assessed as inhibition of pathological changes by measuring inflammatory infiltration in lung tissue at 25 to 50 mg/kg dosed via oral gavage for 14 days by Masson's trichrome staining-based histopathological analysis", "format": "functional, organism-based", "settings": "dose mg/kg 25-50, time 14.0 day"}, "Mus musculus [7]": {"system": "Mus musculus", "experiment": "Antifibrotic activity in C57BL/6 mouse model of bleomycin-induced lung fibrosis assessed as reduction in dendritic cells at 50 mg/kg dosed via oral gavage for 14 days by flow cytometry analysis", "format": "functional, organism-based", "settings": "time 14.0 day"}, "NIH3T3 [8]": {"system": "NIH3T3", "experiment": "Antifibrotic activity in mouse NIH3T3 cells assessed as decrease in TGF-beta1 induced MMP-9 protein expression at 40 uM after 24 hrs by Western blotting analysis", "format": "functional, cell-based"}, "Mus musculus [9]": {"system": "Mus musculus", "experiment": "Antifibrotic activity in po dosed C57BL/6 mouse model of bleomycin-induced lung fibrosis assessed as reduction in weight loss after 7 to 14 days", "format": "functional, organism-based", "settings": "dose mg/kg 25-50, time day 7-14"}, "NIH3T3 [10]": {"system": "NIH3T3", "experiment": "Cytotoxicity against mouse NIH3T3 cells assessed as reduction in cell viability after 24 to 72 hrs by MTT assay", "format": "cell-based", "settings": "time 24-72 hrs"}, "Mus musculus [11]": {"system": "Mus musculus", "experiment": "Inhibition of epithelial-mesenchymal transition in C57BL/6 mouse model of bleomycin-induced lung fibrosis assessed as decrease in vimentin protein expression in lung tissue at 25 to 50 mg/kg dosed via oral gavage for 14 days by Western blotting analysis", "format": "functional, organism-based", "settings": "dose mg/kg 25-50, time 14.0 day"}, "NIH3T3 [12]": {"system": "NIH3T3", "experiment": "Antifibrotic activity in mouse NIH3T3 cells assessed as up regulation of TGF-beta1 inhibited E-cadherin protein expression at 40 uM after 24 hrs by Western blotting analysis", "format": "functional, cell-based"}, "Mus musculus [13]": {"system": "Mus musculus", "experiment": "Antifibrotic activity in C57BL/6 mouse model of bleomycin-induced lung fibrosis assessed as inhibition of pathological changes by measuring collagen deposition in lung tissue at 25 to 50 mg/kg dosed via oral gavage for 14 days by Masson's trichrome staining-based histopathological analysis", "format": "functional, organism-based", "settings": "dose mg/kg 25-50, time 14.0 day"}, "Mus musculus [14]": {"system": "Mus musculus", "experiment": "Antifibrotic activity in bleomycin-induced C57BL/6 mouse model of lung fibrosis assessed as reduction in fibroblast differentiation by measuring alpha-SMA at 25 to 50 mg/kg dosed via oral gavage for 14 days by measuring reduction in alpha-SMA protein expression by immunohistochemical analysis", "format": "functional, organism-based", "settings": "dose mg/kg 25-50, time 14.0 day"}, "A549 [15]": {"system": "A549", "experiment": "Inhibition of cell migration in TGF-beta-stimulated human A549 cells at 50 uM after 24 hrs by optical microscopic based wound healing assay", "format": "functional"}, "Mus musculus [16]": {"system": "Mus musculus", "experiment": "Antifibrotic activity in C57BL/6 mouse model of bleomycin-induced lung fibrosis assessed as reduction in CD4+CD69+ T-cells at 25 mg/kg dosed via oral gavage for 14 days by flow cytometry analysis", "format": "functional, organism-based", "settings": "dose 25.0 […], time 14.0 day"}, "Mus musculus [17]": {"system": "Mus musculus", "experiment": "Antifibrotic activity in C57BL/6 mouse model of bleomycin-induced lung fibrosis assessed as inhibition of pathological changes by measuring inflammatory infiltration in lung tissue at 25 to 50 mg/kg dosed via oral gavage for 14 days by H and E staining-based histopathological analysis", "format": "functional, organism-based", "settings": "dose mg/kg 25-50, time 14.0 day"}, "A549 [18]": {"system": "A549", "experiment": "Cytotoxicity against human A549 cells assessed as reduction in cell viability after 24 to 72 hrs by MTT assay", "format": "functional, cell-based", "settings": "time hrs 24-72"}, "Mus musculus [19]": {"system": "Mus musculus", "experiment": "Antifibrotic activity in bleomycin-induced C57BL/6 mouse model of lung fibrosis assessed as reduction in Ashcroft score at 25 to 50 mg/kg dosed via oral gavage for 14 days by H and E and Masson's trichrome staining based histopathological analysis", "format": "functional, organism-based", "settings": "dose mg/kg 25-50, time 14.0 day"}, "A549 [20]": {"system": "A549", "experiment": "Down regulation of alpha-SMA protein expression in human A549 cells at 50 uM by Western blotting analysis", "format": "functional, cell-based", "settings": "time 24.0 hrs"}, "Mus musculus [21]": {"system": "Mus musculus", "experiment": "Antifibrotic activity in C57BL/6 mouse model of bleomycin-induced lung fibrosis assessed as reduction in dendritic cells at 25 mg/kg dosed via oral gavage for 14 days by flow cytometry analysis", "format": "functional, organism-based", "settings": "time 14.0 day"}, "NIH3T3 [22]": {"system": "NIH3T3", "experiment": "Antifibrotic activity in mouse NIH3T3 cells assessed as reduction in TGF-beta1 induced myofibroblast differentiation by measuring reduction in alpha-SMA protein expression at 40 uM after 24 hrs by immunofluorescence staining analysis", "format": "functional, cell-based"}, "A549 [23]": {"system": "A549", "experiment": "Up regulation of E-cadherin level in TGF-beta-stimulated human A549 cells at 50 uM by Western blot analysis", "format": "functional, cell-based", "settings": "time 24.0 hrs"}, "NIH3T3 [24]": {"system": "NIH3T3", "experiment": "Antifibrotic activity in mouse NIH3T3 cells assessed as decrease in TGF-beta1 induced alpha-SMA protein expression at 40 uM after 24 hrs by Western blotting analysis", "format": "functional, cell-based"}, "A549 [25]": {"system": "A549", "experiment": "Antimigratory activity in human A549 cells assessed as inhibition of TGF-beta1 induced epithelial-mesenchymal transition at 50 uM pretreated with TGF-beta1 for 1 hr followed by compound addition and measured after 24 hrs by scratch wound healing based microscopic analysis", "format": "functional, cell-based"}, "Mus musculus [26]": {"system": "Mus musculus", "experiment": "Inhibition of epithelial-mesenchymal transition in C57BL/6 mouse model of bleomycin-induced lung fibrosis assessed as decrease in alpha-SMA protein expression in lung tissue at 25 to 50 mg/kg dosed via oral gavage for 14 days by Western blotting analysis", "format": "functional, organism-based", "settings": "dose mg/kg 25-50, time 14.0 day"}, "Mus musculus [27]": {"system": "Mus musculus", "experiment": "Inhibition of epithelial-mesenchymal transition in C57BL/6 mouse model of bleomycin-induced lung fibrosis assessed as increase in E-cadherin protein expression in lung tissue at 25 to 50 mg/kg dosed via oral gavage for 14 days by Western blotting analysis", "format": "functional, organism-based", "settings": "dose mg/kg 25-50, time 14.0 day"}, "Mus musculus [28]": {"system": "Mus musculus", "experiment": "Antifibrotic activity in C57BL/6 mouse model of bleomycin-induced lung fibrosis assessed as reduction in weight loss at 50 mg/kg dosed via oral gavage and measured for 7 to 14 days", "format": "functional, organism-based", "settings": "time day 7-14"}, "Mus musculus [29]": {"system": "Mus musculus", "experiment": "Antifibrotic activity in C57BL/6 mouse model of bleomycin-induced lung fibrosis assessed as reduction in CD8+CD69+ T-cells at 50 mg/kg dosed via oral gavage for 14 days by flow cytometry analysis", "format": "functional, organism-based", "settings": "time 14.0 day"}}, "note": "Activity calls are given as the source filed them. The calls are words filed in the database; no cut-off is given here."}
{"smiles": "O=c1c(O)c(-c2ccccc2)oc2cc(O)cc(O)c12", "note": "[GALANGIN]", "values": [{"measurement": "Activity", "setting": "Mus musculus [1]", "result": "inactive"}, {"measurement": "Activity", "setting": "Mus musculus [2]", "result": "Active"}, {"measurement": "Activity", "setting": "Mus musculus [3]", "result": "Active"}, {"measurement": "Activity", "setting": "Mus musculus [4]", "result": "inactive"}, {"measurement": "Activity", "setting": "A549 [5]", "result": "Active"}, {"measurement": "Activity", "setting": "Mus musculus [6]", "result": "Active"}, {"measurement": "Activity", "setting": "Mus musculus [7]", "result": "Active"}, {"measurement": "Activity", "setting": "NIH3T3 [8]", "result": "Active"}, {"measurement": "Activity", "setting": "Mus musculus [9]", "result": "Dose-dependent effect"}, {"measurement": "Activity", "setting": "NIH3T3 [10]", "result": "Toxic"}, {"measurement": "Activity", "setting": "Mus musculus [11]", "result": "Active"}, {"measurement": "Activity", "setting": "NIH3T3 [12]", "result": "Active"}, {"measurement": "Activity", "setting": "Mus musculus [13]", "result": "Active"}, {"measurement": "Activity", "setting": "Mus musculus [14]", "result": "Active"}, {"measurement": "inhibition", "setting": "A549 [15]", "result": "Active"}, {"measurement": "Activity", "setting": "Mus musculus [16]", "result": "inactive"}, {"measurement": "Activity", "setting": "Mus musculus [17]", "result": "Active"}, {"measurement": "Activity", "setting": "A549 [18]", "result": "Active"}, {"measurement": "Activity", "setting": "Mus musculus [19]", "result": "Active"}, {"measurement": "Activity", "setting": "A549 [20]", "result": "Active"}, {"measurement": "Activity", "setting": "Mus musculus [21]", "result": "inactive"}, {"measurement": "Activity", "setting": "NIH3T3 [22]", "result": "Active"}, {"measurement": "Activity", "setting": "A549 [23]", "result": "Active"}, {"measurement": "Activity", "setting": "NIH3T3 [24]", "result": "Active"}, {"measurement": "Activity", "setting": "A549 [25]", "result": "Active"}, {"measurement": "Activity", "setting": "Mus musculus [26]", "result": "Active"}, {"measurement": "Activity", "setting": "Mus musculus [27]", "result": "Active"}, {"measurement": "Activity", "setting": "Mus musculus [28]", "result": "Active"}, {"measurement": "Activity", "setting": "Mus musculus [29]", "result": "Active"}]}
